Measurements from article PMC6508953 (Cell chemical biology, 2017).

How the values were obtained:
Bax [1] = biological target: T1, Bax (Homo sapiens, UniProt Q07812); conditions: not told
Bax [2] = assay: Bax:membrane FRET; type: biochemical, human; conditions: 10 μM preincubated with 20 nM Alexa568-Bax, 20 nM BIM, DiD liposomes
Bax [3] = biological target: T1, Bax; assay: DSS chemical crosslinking of Bax oligomers in liposomes, immunoblot; type: biochemical; conditions: for large oligomers of Bax (DSS crosslinking): high concentrations, compared with positive control Bcl-XL
Bax [4] = biological target: T1, Bax; assay: tBid/Bax-mediated liposome permeabilization; conditions: for IC50: read-out: IC50, concentration of compound required to inhibit 50% of the maximal dye release, liposomes, tBid and Bax, ANTS/DPX release
HCT-116 cells [5] = assay: Immunofluorescence for activated Bax; type: cell-based, human; conditions: 10 μM for 3 hr before ActD for 24 hr, HCT-116 WT
Bax [6] = type: biochemical; conditions: 40 μM
Bax [7] = assay: Bax:Bax FRET oligomerization assay; type: biochemical, human; conditions: 10 μM, liposomes and tBid
[8] = tested on: primary embryonic mouse brain cortical neurons; assay: Glutamate excitotoxicity, lactate dehydrogenase release; type: cell-based
Bax [9] = biological target: T1, Bax; assay: Bax binding to mitochondria by differential centrifugation; type: biochemical; conditions: preincubation of Bax or mitochondria with compound
HCT-116 cells [10] = conditions: 5 or 10 μM pretreatment; WT, Bax-/- and Bak-/- HCT-116 cells; actinomycin D

T1 sequence (Q07812 whole entry): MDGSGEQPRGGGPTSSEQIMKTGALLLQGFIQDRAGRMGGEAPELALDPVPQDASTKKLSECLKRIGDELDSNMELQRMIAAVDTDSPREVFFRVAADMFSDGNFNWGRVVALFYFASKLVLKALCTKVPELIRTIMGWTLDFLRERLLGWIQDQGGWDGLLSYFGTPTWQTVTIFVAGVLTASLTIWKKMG

Structure (SMILES) | inhibition of heat-activated Bax-mediated liposome permeabilization (Bax [1]) | Bax binding to membranes by FRET (Bax [2]) | large oligomers of Bax (DSS crosslinking) (Bax [3]) | IC50 (Bax [4]) [nM] | protection against ActD treatment (BMK cells; sub-toxic doses) | Bax-6A7 positivity (exposure of N-terminal Bax epitope) after ActD (HCT-116 cells [5]) | cytochrome c release from mitochondria in cells after ActD (HCT-116 cells [5]) | Bax dimerization (DSS crosslinking) (Bax [3]; highest concentration tested) | disulfide crosslinks of double-cysteine Bax L59C/L76C and L59C/M79C (Bax [6]) | disulfide crosslinking of Bax-L63C with Bax-A112C (Bax [6]; IVT and TNT systems) | concentration-dependent inhibition of liposome permeabilization by tBid and Bax (Bax [4]; individual assays, normalized to reactions without compound) | FRET between DAC-Bax-134C and NBD-Bax-126C (Bax oligomerization) (Bax [7]) | neuronal damage after glutamate excitotoxicity (LDH release) ([8]; 5 μM added directly after 30 min of 25 or 100 μM glutamate, read after 24 hr) | neuronal damage by compound alone ([8]; 5 μM, 24 hr, no glutamate) | Bax binding to mitochondria (Bax [9]) | survival and growth after ActD treatment and replating (HCT-116 cells [10]) | survival and growth after STS treatment and replating (BMK cells; 5 μM compound, BMK cells, staurosporine) | survival and growth after ActD treatment and replating (BMK cells; 5 or 10 μM pretreatment, WT, Bax-/- and Bak-/- BMK cells, 75 nM ActD)
NCCCN(Cc1ccc(Br)cc1)C(=O)[C@H](Cc1ccccc1)NC(=O)c1ccccc1 [DAN004] | inhibited heat-activated Bax-mediated liposome permeabilization equivalently | did not inhibit Bax binding to membranes | inhibited large oligomers of Bax to a similar extent as the positive control Bcl-XL | ~700 | did not confer protection against ActD treatment | – | – | – | – | – | – | – | – | – | – | – | – | –
COCCOCOc1ccc2c(c1)O[C@H](CN)[C@H]2N(Cc1ccc(Br)cc1)C(=O)[C@H](Cc1ccccc1)NC(=O)c1ccccc1 [MSN-125] | – | – | inhibited large oligomers of Bax to a similar extent as the positive control Bcl-XL | ~4000 | – | prevented | prevented | inhibited Bax dimerization to a limited extent | not inhibited by MSN-125 | not inhibited by MSN-125 | inhibited dye release from liposomes in a concentration-dependent fashion | reduced FRET | substantially reduced neuronal damage | did not result in neuronal damage | did not inhibit Bax binding to mitochondria | conferred survival | conferred long-term survival and growth | conferred survival
